ChEMBL document CHEMBL1201862, “PubChem BioAssay data set” (2004)
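Exposure lasted 48 hours, with cells grown in 96-well plates and compounds tested at five concentrations. GI50 = concentration required for 50% inhibition of growth.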 Active and inactive are the calls of the source. Cut-off read from the data, not from the text of the source: active = GI50 up to about 1.1 µM and inactive = higher.

Key:
Assay in all cases: inhibition of tumour cell growth, NCI panel, 48 h
UO-31 = system: UO-31
KM12 = system: KM12
RPMI-8226 = system: RPMI-8226
CCRF-CEM = system: CCRF-CEM
MOLT-4 = system: MOLT-4
A498 = system: A498
SF-295 = system: SF-295
TK-10 = system: TK-10
IGROV-1 = system: IGROV-1
SF-539 = system: SF-539
M19-MEL = system: M19-MEL
SF-268 = system: SF-268
NCI-H226 = system: NCI-H226
SK-MEL-5 = system: SK-MEL-5
Hs-578T = system: Hs-578T
MDA-MB-435 = system: MDA-MB-435
T47D = system: T47D
MDA-N = system: MDA-N
PC-3 = system: PC-3
NCI/ADR-RES = system: NCI/ADR-RES

| SMILES | GI50 (UO-31) | GI50 (KM12) | GI50 (RPMI-8226) | GI50 (CCRF-CEM) | GI50 (MOLT-4) | GI50 (A498) | GI50 (SF-295) | GI50 (TK-10) | GI50 (IGROV-1) | GI50 (SF-539) | GI50 (M19-MEL) | GI50 (SF-268) | GI50 (NCI-H226) | GI50 (SK-MEL-5) | GI50 (Hs-578T) | GI50 (MDA-MB-435) | GI50 (T47D) | GI50 (MDA-N) | GI50 (PC-3) | GI50 (NCI/ADR-RES) |
| --- | --- | --- | --- | --- | --- | --- | --- | --- | --- | --- | --- | --- | --- | --- | --- | --- | --- | --- | --- | --- |
| O=c1c(-c2ccccc2)c(O)nc2[nH]c3ccccc3n12 | > 100 µM (inactive) | > 100 µM (inactive) | > 100 µM (inactive) | > 100 µM (inactive) | > 100 µM (inactive) | > 100 µM (inactive) | > 100 µM (inactive) | > 100 µM (inactive) | > 100 µM (inactive) | > 100 µM (inactive) | > 100 µM (inactive) | > 100 µM (inactive) | > 100 µM (inactive) | > 100 µM (inactive) |  |  |  |  |  |  |
| COc1cc2c(c(OC)c1OC)-c1ccc(OC)c(=O)cc1C(NC(=O)c1ccc(N=[N+]=[N-])cc1)CC2 (stereo unspecified) | 9.08 µM (inactive) | 0.0234 µM (active) | 0.0359 µM (active) | 0.0316 µM (active) | 0.0411 µM (active) | 0.0186 µM (active) | 0.0246 µM (active) | 13 µM (inactive) | 0.0466 µM (active) | 0.0238 µM (active) | 0.0581 µM (active) | 0.0557 µM (active) | 0.451 µM (active) | 0.0264 µM (active) | 0.084 µM (active) | 0.0134 µM (active) | > 100 µM (inactive) |  |  |  |
| CC1CCSC(N(C(=O)N(C)c2ccccc2)c2ccccc2)=N1 (stereo unspecified) | > 100 µM (inactive) | > 100 µM (inactive) | > 100 µM (inactive) | > 100 µM (inactive) | > 100 µM (inactive) | > 100 µM (inactive) | > 100 µM (inactive) | > 100 µM (inactive) | > 100 µM (inactive) | > 100 µM (inactive) | > 100 µM (inactive) | > 100 µM (inactive) | 74.1 µM (inactive) | > 100 µM (inactive) |  |  |  |  |  |  |
| O=C1CC2CCN(C(=O)c3ccccc3)CC2CCN1 (stereo unspecified) | > 100 µM (inactive) | > 100 µM (inactive) | > 100 µM (inactive) | > 100 µM (inactive) | > 100 µM (inactive) | > 100 µM (inactive) | > 100 µM (inactive) | > 100 µM (inactive) | > 100 µM (inactive) | > 100 µM (inactive) | > 100 µM (inactive) | > 100 µM (inactive) | > 100 µM (inactive) | > 100 µM (inactive) |  |  |  |  |  |  |
| COc1ccc(OCC(=O)O)c2c1CCCC2=O | > 100 µM (inactive) | > 100 µM (inactive) | > 100 µM (inactive) | > 100 µM (inactive) | > 100 µM (inactive) | > 100 µM (inactive) | > 100 µM (inactive) | > 100 µM (inactive) | > 100 µM (inactive) | > 100 µM (inactive) | > 100 µM (inactive) | > 100 µM (inactive) | 64.6 µM (inactive) | > 100 µM (inactive) |  |  |  |  |  |  |
| COC(=O)Cc1cc(O)c2c(c1O)C(=O)c1ccccc1C2=O | > 100 µM (inactive) | > 100 µM (inactive) | > 67.5 µM (inactive) | > 52.6 µM (inactive) | > 84.5 µM (inactive) | 48.1 µM (inactive) | 27.6 µM (inactive) | 39.4 µM (inactive) | > 83.8 µM (inactive) | 35.9 µM (inactive) | > 100 µM (inactive) | 51.1 µM (inactive) | 92.3 µM (inactive) | 68.2 µM (inactive) | 34 µM (inactive) | > 100 µM (inactive) | > 100 µM (inactive) | > 100 µM (inactive) | > 100 µM (inactive) | 71.9 µM (inactive) |
| COC(=O)C12C3C4C5C3(C#N)C1C5(C(=O)OC)C42C(=O)N(C(C)C)C(C)C (stereo unspecified) | > 100 µM (inactive) | > 100 µM (inactive) | > 48.6 µM (inactive) | > 46 µM (inactive) | 66.2 µM (inactive) | > 100 µM (inactive) | > 100 µM (inactive) | > 100 µM (inactive) | > 100 µM (inactive) | > 100 µM (inactive) | > 100 µM (inactive) | > 100 µM (inactive) | > 100 µM (inactive) | > 100 µM (inactive) |  |  |  |  |  |  |
| CSc1nc(NC2OC(COC(C)=O)C(OC(C)=O)C(OC(C)=O)C2OC(C)=O)c(-c2csc(N)n2)c(=O)n1C (stereo unspecified) | 24.6 µM (inactive) | > 100 µM (inactive) | > 100 µM (inactive) | > 100 µM (inactive) | > 100 µM (inactive) | > 100 µM (inactive) | 33.6 µM (inactive) | > 100 µM (inactive) | 34.1 µM (inactive) | 25.2 µM (inactive) | 47.6 µM (inactive) | 22.5 µM (inactive) | 15.7 µM (inactive) | 57.5 µM (inactive) |  |  |  |  |  |  |
| CN(C)C(=S)/N=c1\ss/c(=N\C(=S)N(C)C)n1-c1ccc(Cl)c(Cl)c1 | > 100 µM (inactive) | > 100 µM (inactive) | > 100 µM (inactive) | > 100 µM (inactive) | > 100 µM (inactive) | > 100 µM (inactive) | > 100 µM (inactive) | > 100 µM (inactive) | > 100 µM (inactive) | > 100 µM (inactive) | > 100 µM (inactive) | > 100 µM (inactive) | > 100 µM (inactive) | > 100 µM (inactive) |  |  |  |  |  |  |
| CC(=O)NC(Cc1ccccc1)C(=S)N1CCCC1 (stereo unspecified) | > 100 µM (inactive) | > 100 µM (inactive) | > 100 µM (inactive) | > 100 µM (inactive) | > 100 µM (inactive) | > 100 µM (inactive) | > 100 µM (inactive) | > 100 µM (inactive) | > 100 µM (inactive) | > 100 µM (inactive) | > 100 µM (inactive) | > 100 µM (inactive) | > 100 µM (inactive) | > 100 µM (inactive) |  |  |  |  |  |  |
| CN(C)[C@@H]1C(O)=C(C(=O)NCNc2nc3[nH]nnc3c(=O)[nH]2)C(=O)[C@@]2(O)C(O)=C3C(=O)c4c(O)cccc4[C@@](C)(O)[C@H]3C[C@@H]12 | 0.358 µM (active) | 49.8 µM (inactive) | 0.272 µM (active) | 0.228 µM (active) | 0.288 µM (active) | 92 µM (inactive) | 4.47 µM (inactive) | 2.3 µM (inactive) | 15.9 µM (inactive) | 0.641 µM (active) | 2.24 µM (inactive) | 1.01 µM (active) | 1.73 µM (inactive) | 1.9 µM (inactive) | 2 µM (inactive) | 0.452 µM (active) | 5.37 µM (inactive) | 0.393 µM (active) | 3.42 µM (inactive) | 2.37 µM (inactive) |
| O=C(c1ccccn1)c1nc(-c2ccc(Cl)c(Cl)c2)nc2ccc(Cl)cc12 | 56.9 µM (inactive) | > 100 µM (inactive) | > 100 µM (inactive) | 71.1 µM (inactive) | 58.6 µM (inactive) | 45.1 µM (inactive) | 31.1 µM (inactive) | 67 µM (inactive) | 35 µM (inactive) | 18.1 µM (inactive) | 81.1 µM (inactive) |  | 23.1 µM (inactive) | 51.9 µM (inactive) |  |  |  |  |  |  |
| CCN(CC)CCNc1ccc2nnn3c4ccccc4c(=O)c1c23 | 4.46 µM (inactive) | 4.01 µM (inactive) | 2.45 µM (inactive) | 2.86 µM (inactive) | 1.66 µM (inactive) | 11.4 µM (inactive) | 4.29 µM (inactive) | 4.39 µM (inactive) | 6.98 µM (inactive) | 6.84 µM (inactive) | 4.86 µM (inactive) | 4.83 µM (inactive) | 2.01 µM (inactive) | 3.08 µM (inactive) |  |  |  |  |  |  |
